{"source": "patent US6331642A", "about": "“Vitamin D3 analogs” (Hoffmann-La Roche Inc., priority 2000, dated 2001)", "key": {"[1]": {"test_system": "hTERT mRNA", "assay": "hTERT mRNA expression (RT-PCR) in HL-60 cells", "type": "cell-based, human", "settings": "for IC (almost complete): Homo sapiens, read-out: concentration giving almost complete inhibition of hTERT mRNA expression", "method": "(§1) Telomerase Activity. To detect the relative telomerase activity, telomeric repeat amplification protocol (TRAP) assays were performed. For human telomerase reverse transcriptase (hTERT), total RNAs were isolated from HL-cells which were treated with either 1,25(OH)2 D3 or 1,25(OH)2 -16-ene-5,6-trans-D3 (10^- 9 10^-8, and 10^-7 M) for 4 days with a monophasic solution of phenol and guanidine isothiocyanate. RT-PCR was performed with 1 μg of total RNA and random hexamer primers. cDNA was amplified using primers specific for the hTERT gene or the GAPDH gene, which was used as a control. The primers used for hTERT were: 5'-[…]-3' (sense) (SEQ ID NO: 1), and 5'-GGATGAAGCGGAGTCTGGA-3'-(antisense) (SEQ ID NO: 2). The thermal cycles were 94° C. for 90 seconds, followed by 33 cycles of 95° C. for 20 seconds, 68° C. for 40 seconds, and 72° C. for 30 seconds. Primers for the GAPDH gene were: 5'-CCATGGAGAAGGCTGGGG-3' (sense) (SEQ ID NO: 3), and 5'-[…]-3' (antisense) (SEQ ID NO: 4). Conditions for GAPDH amplifications were: 94° C. for 2 minutes, 26 cycles of 94° C. for 30 seconds, 62° C. for 40 seconds, 72° C. for 60 seconds, followed by 72° C. for 4 minutes. PCR products were electrophoresed on 1% agarose gel and stained with ethidium bromide.\nThe effects of vitamin D3 analogs on hTERT expression in HL-60 cells was evaluated using RT-PCR."}, "[2]": {"test_system": "telomerase", "assay": "Telomerase activity (TRAP assay) in HL-60 cells", "type": "cell-based", "settings": "4 days", "method": "as §1, with “PCR products were electrophoresed on 1% agarose gel and stained with ethidium bromide.” left out\nTelomerase Activity. The effect of 1,25(OH)2 -16-ene-5,6-trans-D3and 1,25(OH)2 D3 (10^-9 -10^-7 M, 4 days) on telomerase activity was evaluated using the TRAP assay."}, "[3]": {"test_system": "ventral prostate", "assay": "Antiandrogenic activity in castrated testosterone stimulated hamsters, ventral prostate", "type": "in vivo, male Syrian hamsters", "method": "(§2) 1,25(OH)2 -16-ene-5,6-trans D3 was evaluated for antiandrogenic activity in castrated, testosterone stimulated male Syrian hamsters.\n(§3) […] Both compounds were administered in a vehicle of 0.2 ml sesame oil each. Necropsy was performed on day 15. The prostate and seminal vesicles were removed, blotted and weighed. Data were analyzed for statistical significance using the Student's t-test and are expressed as percent inhibition of stimulated response."}, "[4]": {"test_system": "seminal vesicles", "assay": "Antiandrogenic activity in castrated testosterone stimulated hamsters, seminal vesicles", "type": "in vivo, male Syrian hamsters", "method": "as §2, §3"}, "[5]": {"test_system": "sebaceous glands", "assay": "Sebaceous gland area, hamster ear (image analysis)", "type": "in vivo, Golden Syrian hamsters", "settings": "4 weeks", "method": "(§4) Two hundred μl of (1,25)OH2 -16-ene-5,6-trans D3 was dissolved in propylene glycol, administered daily (5 days per week) by gavage to […] Golden Syrian hamsters. The animals were sacrificed at 4 weeks and the ears were processed for histological evaluation. The area of the sebaceous glands was measured on histologically prepared cross sections of the ear by image analysis."}, "[6]": {"test_system": "myeloid leukemia cell line (HL-60)", "assay": "Clonogenic assay in soft agar, HL-60", "type": "cell-based", "settings": "Homo sapiens, HL-60 cells, read-out: ED50 (effective dose that inhibited 50% colony formation)", "method": "(§5) Cell lines. The breast cancer cell line (MCF-7), prostate cancer cell line (LNCaP) and myeloid leukemia cell line (HL-60) were maintained as follows: MCF-7 cells were maintained in Dulbecco's Modified Eagle Media (DMEM) with 10% fetal calf serum (FCS); LNCaP and HL-60 were cultured in RPMI1640 with 10% FCS; All three cell lines were maintained in a 37° C. incubator containing 5% CO2.\n(§6) Vitamin D3 Compounds. The vitamin D3 compounds were dissolved in absolute ethanol at 10^-3 M as stock solution, which were stored at -20° C. and protected from light. For in vitro use, compounds were diluted in DMEM or RPMI medium. For in vivo use, compounds were diluted with phosphate buffered saline (PBS). […]. Washed single-cell suspensions of cells were enumerated and plated into 24-well flat-bottomed plates with a total of […] cells/well in a volume of 400 μl/well. The feeder layer was prepared with agar that had been equilibrated at 42° C. Prior to this step, compounds were pipetted into wells. After incubation, the colonies were counted. All experiments were done at least three times using triplicate plates per experimental point.\n(§7) Effect of Vitamin D3 analogs on Clonogenic Assay. […]"}, "[7]": {"test_system": "LNCaP cells, MCF-7 cells and HL-60 cells", "assay": "Clonogenic assay, three cell lines together", "type": "cell-based", "method": "as §5, §6, §7"}, "[8]": {"test_system": "ear total lipid fraction", "assay": "Total lipid fraction of hamster ear", "type": "in vivo, Golden Syrian hamsters", "settings": "4 weeks", "method": "as §4\nAlso examined was the total lipid fraction from one of the ears (extraction by organic solvent followed by weighing the remaining lipid material)."}, "[9]": {"assay": "Serum calcium levels, adult female rats, day 7 of oral dosing", "type": "in vivo", "settings": "for Serum Calcium Mean: vehicle 9.65", "method": "Three month old adult female rats were used. […] On day 7 of dosing, animals were bled and serum calcium levels were determined. Compound was dissolved in 200 proof ethanol to produce a concentration of 100 μg/ml. […] Dose volume was calculated using the dosing group average body weight. Serial dilutions of vehicle dissolved compound were done to appropriate dosage concentrations. Blood (1.5 ml) was collected from each animal by orbital puncture under ether anesthesia on Day 7 of dosing. Blood was collected into serum separator tubes, centrifuged at 2000 rpm for 15 minutes and then serum aliquoted for calcium determinations. Serum calcium was determined by colorimetric assay."}, "[10]": {"test_system": "breast cancer cell line (MCF-7)", "assay": "Clonogenic assay in soft agar, MCF-7", "type": "cell-based", "settings": "Homo sapiens, MCF7, MCF-7 cells, read-out: ED50 (effective dose that inhibited 50% colony formation)", "method": "as §5, §6, §7"}, "[11]": {"test_system": "prostate cancer cell line (LNCaP)", "assay": "Clonogenic assay in soft agar, LNCaP", "type": "cell-based", "settings": "Homo sapiens, LNCaP cells, read-out: ED50 (effective dose that inhibited 50% colony formation)", "method": "as §5, §6, §7"}, "[12]": {"settings": "castrated, testosterone stimulated hamsters"}, "[13]": {"settings": "testosterone + 0.1 μg compound s.c. daily, 14 days"}}, "note": "Where two headings read alike, the source gives them in different places."}
{"compound": "C=C1/C(=C\\C=C2/CCC[C@]3(C)[C@@H]([C@H](C)CCCC(C)(C)O)CC[C@@H]23)C[C@@H](O)C[C@@H]1O", "note": "[1,25(OH)2 D3, reference compound]", "values": [{"measurement": "expression of hTERT mRNA", "setting": "[1]; HL-60 cells, 4 days", "result": "inhibited the expression of hTERT mRNA in a dose-dependent manner"}, {"measurement": "IC (almost complete)", "setting": "[1]; HL-60, 96 h", "result": 0.1, "unit": "µM"}, {"measurement": "telomerase activity", "setting": "[2]; 10^-7 M", "result": "markedly decreased"}, {"measurement": "androgen-induced hypertrophy of the ventral prostate gland", "setting": "[3]; non-toxic doses (1 μg)", "result": "inactive"}, {"measurement": "androgen-induced hypertrophy of the seminal vesicles", "setting": "[4]; non-toxic doses (1 μg)", "result": "inactive"}]}
{"compound": "C=C1/C(=C/C=C2\\CCC[C@]3(C)C([C@H](C)CCCC(C)(C)O)=CC[C@@H]23)C[C@@H](O)C[C@@H]1O", "note": "[1,25(OH)2-16-ene-5,6-trans-D3, 1,25-Dihydroxy-16-ene-5,6-trans-cholecalciferol]", "values": [{"measurement": "expression of hTERT mRNA", "setting": "[1]; HL-60 cells, 4 days", "result": "inhibited the expression of hTERT mRNA in a dose-dependent manner"}, {"measurement": "IC (almost complete)", "setting": "[1]; 96 h, HL-60 cells, 4 days", "result": 0.01, "unit": "µM"}, {"measurement": "sebaceous gland area, % Change from Control", "setting": "[5]; 0.01 μg/day gavage", "result": -5, "unit": "%"}, {"measurement": "sebaceous gland area, % Change from Control", "setting": "[5]; 0.1 μg/day gavage", "result": -23, "unit": "%"}, {"measurement": "sebaceous gland area, % Change from Control", "setting": "[5]; 1 μg/day gavage", "result": -50, "unit": "%"}, {"measurement": "sebaceous gland area, % Change from Control", "setting": "[5]; 10 μg/day gavage", "result": -50, "unit": "%"}, {"measurement": "IC50", "setting": "[6]", "result": 0.03, "unit": "nM"}, {"measurement": "telomerase activity", "setting": "[2]; 10^-9 M", "result": "markedly decreased"}, {"measurement": "inhibition of clonal proliferation", "setting": "[7]; 10^-11 to 10^-7 M", "result": "effective in inhibition of clonal proliferation of the three cell lines in a dose-dependent manner"}, {"measurement": "potency relative to 1,25(OH)2 D3 (fold more potent)", "setting": "[7]; vs 1,25(OH)2 D3, about", "result": "10-100 fold"}, {"measurement": "total lipid fraction, % Change from Control", "setting": "[8]; 0.01 μg/day gavage", "result": -26, "unit": "%"}, {"measurement": "total lipid fraction, % Change from Control", "setting": "[8]; 0.1 μg/day gavage", "result": -25, "unit": "%"}, {"measurement": "total lipid fraction, % Change from Control", "setting": "[8]; 1 μg/day gavage", "result": -37, "unit": "%"}, {"measurement": "total lipid fraction, % Change from Control", "setting": "[8]; 10 μg/day gavage", "result": -56, "unit": "%"}, {"measurement": "androgen-induced hypertrophy of the ventral prostate gland", "setting": "[3]; [12]", "result": "substantially suppressed"}, {"measurement": "Ventral prostate Inhib. (percent inhibition of stimulated response)", "setting": "[3]; [13]", "result": 77, "unit": "%"}, {"measurement": "Ventral prostate weight", "setting": "[3]; [13]", "result": "19 ± 2", "unit": "mg"}, {"measurement": "androgen-induced hypertrophy of the seminal vesicles", "setting": "[4]; [12]", "result": "substantially suppressed"}, {"measurement": "Seminal vesicles Inhib. (percent inhibition of stimulated response)", "setting": "[4]; [13]", "result": 48, "unit": "%"}, {"measurement": "Seminal vesicles weight", "setting": "[4]; testosterone + 0.1 μg compound s.c. daily, 14 days, mg ± SEM", "result": "71 ± 1", "unit": "mg"}, {"measurement": "Serum Calcium Mean", "setting": "[9]; 0.5 μg/kg/day oral", "result": 10.64, "unit": "mg/dL"}, {"measurement": "Serum Calcium Mean", "setting": "[9]; 1 μg/kg/day oral", "result": 10.06, "unit": "mg/dL"}, {"measurement": "Serum Calcium Mean", "setting": "[9]; 1.5 μg/kg/day oral", "result": 9.92, "unit": "mg/dL"}, {"measurement": "Serum Calcium Mean", "setting": "[9]; 2 μg/kg/day oral", "result": 9.77, "unit": "mg/dL"}, {"measurement": "serum calcium levels", "setting": "[9]; up to 2 μg/kg/day oral", "result": "within the normal range"}, {"measurement": "IC50", "setting": "[10]", "result": 4.3, "unit": "nM"}, {"measurement": "IC50", "setting": "[11]", "result": 1.4, "unit": "nM"}]}
